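Growth conditions: 96-well plates. Treatment: test compound, 48 hours, 5 concentrations. Analysis: linear interpolation between bracketing concentrations; unreached endpoints set to highest concentration. GI50 marks 50% less growth.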 The source made the active and inactive calls. Cut-off read from the data, not from the text of the source: active = GI50 up to about 1.1 µM and inactive = higher.
Assays:
Assay in all cases: NCI-60 cell line screen, 48 h
NCI-H226 = system: NCI-H226
LOX IMVI = system: LOX IMVI
SK-MEL-5 = system: SK-MEL-5
OVCAR-4 = system: OVCAR-4
EKVX = system: EKVX
SNB-19 = system: SNB-19
SNB-75 = system: SNB-75
HOP-18 = system: HOP-18
CAKI-1 = system: CAKI-1
HT-29 = system: HT-29
KM12 = system: KM12
SN12C = system: SN12C
ACHN = system: ACHN
OVCAR-8 = system: OVCAR-8
SF-295 = system: SF-295
HL-60 = system: HL-60
HCT-15 = system: HCT-15
PC-3 = system: PC-3
Hs-578T = system: Hs-578T
BT-549 = system: BT-549

Row | Compound | GI50 (NCI-H226) | GI50 (LOX IMVI) | GI50 (SK-MEL-5) | GI50 (OVCAR-4) | GI50 (EKVX) | GI50 (SNB-19) | GI50 (SNB-75) | GI50 (HOP-18) | GI50 (CAKI-1) | GI50 (HT-29) | GI50 (KM12) | GI50 (SN12C) | GI50 (ACHN) | GI50 (OVCAR-8) | GI50 (SF-295) | GI50 (HL-60) | GI50 (HCT-15) [µM] | GI50 (PC-3) | GI50 (Hs-578T) | GI50 (BT-549)
1 | C#CCOCn1cnc2ncnc(N)c21 | > 100 µM (inactive) | > 100 µM (inactive) | > 100 µM (inactive) | > 100 µM (inactive) | > 100 µM (inactive) | > 100 µM (inactive) | > 100 µM (inactive) | > 100 µM (inactive) | > 100 µM (inactive) | > 100 µM (inactive) | > 100 µM (inactive) | > 100 µM (inactive) | > 100 µM (inactive) | > 100 µM (inactive) | > 100 µM (inactive) |  |  |  |  | 
2 | C=CC[P@]1(=O)O[C@H](c2ccccc2)[C@H](C)N1C | > 100 µM (inactive) | > 100 µM (inactive) | > 100 µM (inactive) | > 100 µM (inactive) | > 100 µM (inactive) | > 100 µM (inactive) | > 100 µM (inactive) | 79.1 µM (inactive) |  | > 100 µM (inactive) | > 100 µM (inactive) | > 100 µM (inactive) | > 100 µM (inactive) | > 100 µM (inactive) | > 100 µM (inactive) | > 100 µM (inactive) | > 100 |  |  | 
3 | O=C(CCc1n[nH]c(=S)o1)Nc1ccc(Cl)cc1Cl | > 100 µM (inactive) |  | > 100 µM (inactive) | > 100 µM (inactive) | > 100 µM (inactive) | > 100 µM (inactive) | > 100 µM (inactive) | > 100 µM (inactive) | > 100 µM (inactive) | 34.3 µM (inactive) | > 100 µM (inactive) | > 100 µM (inactive) | > 100 µM (inactive) | > 100 µM (inactive) | > 100 µM (inactive) | 76.4 µM (inactive) | 20.9 |  |  | 
4 | CC1Cc2cc(O)ccc2C2[C@@H]1C1CC[C@H](O)[C@@]1(C)C[C@@H]2O[N+](=O)[O-] (stereo partly specified) | 32.1 µM (inactive) | 9.2 µM (inactive) | 4.93 µM (inactive) | 26.7 µM (inactive) | 21.4 µM (inactive) | 9.68 µM (inactive) | 10.3 µM (inactive) |  | 10.2 µM (inactive) | 16 µM (inactive) | 19.7 µM (inactive) | 14.7 µM (inactive) | 14.7 µM (inactive) | 16.8 µM (inactive) | 7.29 µM (inactive) | 2.79 µM (inactive) | 5.18 | 20.1 µM (inactive) | 3.21 µM (inactive) | 10.9 µM (inactive)

— ChEMBL document CHEMBL1201862, “PubChem BioAssay data set” (2004)
